58 compounds from PubChem BioAssay AID1259418 (Broad Institute, 2018) can be followed below.

“And” between values parts separate entries of the source, which are not always exact repeats. Identical values can stand only once. Inconclusive results are not listed. The source made the active and inactive calls.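 How the source made its calls: active means fitted half-maximal concentration of signal decrease at or below twice the sample's top tested concentration; inconclusive means flat curve between -70 and -30 percent, or poor fit; inactive means flat within 30 percent, signal rise, or potency above limit.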 Some results are limits rather than exact numbers.

The target in this test is T. gondii ME49Luc in IFN-y HeLa, luciferase, 72 h. Kind of test: T. gondii growth inhibition with IFN-gamma, dose response, cell-based, ME49Luc, HeLa, luciferase, 72 h (AID 1259418).

Regarding `CCCCNC(=O)CCC1N=C2c3ccccc3N=C(SCc3ccc(Cl)cc3)N2C1=O` (stereo not drawn), the AC50 – broadly, the midpoint of the concentration-response curve, whichever way the signal moves – is 17 µM.

With `COc1ccc(NS(=O)(=O)c2cc3c4c(c2)CCC(=O)N4CCC3)cc1OC`, the AC50 was 28.4 µM.

On to `CCc1ccc(N2CCC(C(=O)NCCc3c[nH]c4ccc(C)cc34)C2=O)cc1` (stereo not drawn), for which the AC50 is 22.9 µM.

Turning to `Cc1ccc(-c2nc3c(s2)CN(C(=O)Nc2ccc(C)cc2C)CC3)cc1`, the AC50 was 35 µM.

Turning to `O=C(c1cccc(F)c1)N1CCCCN2[C@H](C1)[C@@H](c1ccc(C#CC3(O)CCCC3)cc1)[C@@H]2CO`, the AC50 was 11 µM and 29.4 µM.

As to `CCOc1ccc(-c2nc(CN(c3ccc(OC)cc3)S(=O)(=O)c3ccccc3)c(C)o2)cc1`, the AC50 was 21.1 µM.

Consider `C/C=C/c1ccc([C@H]2[C@@H](CO)N3CCCCN(S(=O)(=O)c4ccc(OC)cc4)C[C@H]23)cc1`, for which the AC50 is 15.7 µM.

With `O=C(CCCCCn1c(=S)[nH]c2ccccc2c1=O)N1CCC(O)(c2cccc(C(F)(F)F)c2)CC1`, the AC50 was 26.9 µM.

Regarding `O=C1CCc2cc(S(=O)(=O)NCc3ccco3)cc3c2N1CCC3`, the AC50 was > 39 µM (inactive).

In the case of `O=C(NC1CCCC1)N1CCCCN2[C@H](CO)[C@H](c3ccc(-c4cccnc4)cc3)[C@H]2C1`, the AC50 is 24.1 µM.

Turning to `COc1ccc(-c2nc(NCCCN3CCN(C)CC3)c3ccccc3n2)cc1`, the AC50 was 14.4 µM.

Take `C[C@H](O[C@H]1OCCN(Cc2n[nH]c(=O)[nH]2)[C@H]1c1ccc(F)cc1)c1cc(C(F)(F)F)cc(C(F)(F)F)c1`: the AC50 is 15.4 µM.

Consider `CCOc1ccc(N(Cc2nc(-c3ccc(OC)cc3)oc2C)S(=O)(=O)c2cccs2)cc1`, for which the AC50 is 4.79 µM.

In the case of `CCc1ccc(S(=O)(=O)N2CCC3(CCCN(Cc4c(C)noc4C)C3)C2)cc1` (stereo not drawn), the AC50 is 22.9 µM.

For `CCCC#Cc1ccc([C@H]2[C@H](CO)N3C(=O)CN(C(=O)Nc4cccc(F)c4)C[C@@H]23)cc1`, the AC50 was 10.4 µM.

In the case of `COc1ccccc1NC(=O)N1CCCCN2[C@H](CO)[C@@H](c3ccc(-c4cccc(C#N)c4)cc3)[C@@H]2C1`, the AC50 is 21.5 µM.

In the case of `COc1ccc(-c2nc(CN(c3ccc(C)cc3)S(=O)(=O)c3cccs3)c(C)o2)cc1OC`, the AC50 is 15 µM.

`CN(C)CC(=O)N1[C@H](C#N)[C@H](c2ccc(C#CC3CCCCC3)cc2)[C@@H]1CO`: the AC50 is 14.8 µM.

Regarding `CCC(C(=O)N1CCC2(CC1)Nc1ccc(Cl)cc1-n1cccc12)c1ccccc1` (stereo not drawn), the AC50 is > 39 µM (inactive).

Turning to `Cc1cccc(-c2ccc([C@@H]3[C@H](CO)N4CCCCN(S(=O)(=O)c5ccccc5F)C[C@@H]34)cc2)c1`, the AC50 is 16.6 µM and 10.7 µM.

For the compound `Cc1cccc(-c2nc(Cn3nnc(-c4nc(-c5ccncc5)no4)c3C)c(C)o2)c1`, the AC50 is 8.63 µM.

Take `CC(=O)NCc1nnn2c1CN(c1ncccn1)CCC2`: the AC50 was 10.9 µM.

`COc1ccc2c(c1)NC1(CCN(C(=O)c3c(F)cccc3F)CC1)c1cccn1-2`: the AC50 is > 39 µM (inactive).

Consider `Cc1cccc(NC(=O)COc2nc(C)nc3ccccc23)c1`, for which the AC50 is 32 µM.

Consider `COc1cccc(NC(=O)N2CC(=O)N3[C@H](C2)[C@@H](c2ccc(C#CCC4CCCC4)cc2)[C@@H]3CO)c1`, for which the AC50 is 17 µM and 3.35 µM.

Regarding `O=C(NCc1cncc2c1CCN(Cc1cccc(F)c1)C2)C1CC1`, the AC50 was 8.45 µM.

On to `Cc1nnsc1CN(C)Cc1[nH]c2ccc(F)cc2c1C`, for which the AC50 was > 39 µM (inactive).

Take `Cc1ccc(-c2coc(-c3ccc(NS(=O)(=O)c4ccc(F)c(Cl)c4)cc3)n2)c(C)c1`: the AC50 was 24.7 µM.

For `CCCNC(=O)N1[C@H](C#N)[C@H](c2ccc(-c3ccccc3F)cc2)[C@@H]1CO`, the AC50 was 3.6 µM.

With `Cc1cccc(-c2ccc([C@H]3[C@@H](CO)N4CCCCN(S(=O)(=O)c5ccccc5F)C[C@H]34)cc2)c1`, the AC50 was 16.9 µM and 13.6 µM.

On to `Cc1ccccc1Cn1c(CN2CCC(C(=O)NCCCN3CCCC3)CC2)cc2ccccc21`, for which the AC50 is 18.2 µM.

Consider `O=C(Nc1cccc(F)c1)N1CCCCN2[C@@H](CO)[C@H](c3ccc(C#Cc4cccnc4)cc3)[C@@H]2C1`, for which the AC50 was 4.48 µM.

Consider `CN1c2ccc(-c3ccccc3)cc2[C@H]2[C@H](CCN2C(=O)CC2CC2)[C@@H]1CO`, for which the half-maximal activity concentration (AC50) was 18.8 µM.

Regarding `O=S(=O)(c1ccc2c(c1)CCCC2)N1CCC2(CC1)NCCN=C2NCc1ccccc1`, the AC50 is 12.9 µM.

Take `C1=CC[C@H]2CN(c3ncnc4[nH]ccc34)C[C@H]2C1`: the AC50 was 13.1 µM.

Consider `CN1C(=O)c2cc(NC(=O)c3cccc(F)c3)ccc2OC[C@H]2O[C@@H](CC(=O)NCC3CCCCC3)CC[C@H]21`, for which the AC50 is 18.6 µM and 10.5 µM and 24.5 µM.

With `OC[C@H]1[C@@H](c2ccc(C#Cc3ccccc3F)cc2)[C@@H]2CN(CC3CCOCC3)CCCCN12`, the AC50 was 15.9 µM.

Turning to `COc1ccccc1C#Cc1ccc([C@H]2[C@@H](CO)N3CCCCN(C(=O)C4CCC4)C[C@@H]23)cc1`, the AC50 was 18.8 µM.

As to `COc1ccccc1-c1nc(CN2CCc3c(sc4c3CCCC4)C2c2ccccc2)c(C)o1` (stereo not drawn), the AC50 was 7.72 µM.

For the compound `Cc1sc2ncnc(Oc3ccc(OCc4ccccc4)cc3)c2c1C`, the AC50 was 7.63 µM and 8.8 µM.

`COc1cc(CN2C[C@@H]3N[C@H](C2)C3c2ccc(-c3ccc(C#N)cc3)cc2)cc(OC)c1` (stereo partly drawn): the AC50 is 6.02 µM and 7.29 µM and 16.7 µM.

Take `CN1c2ccc(-c3ccc(C#N)cc3)cc2[C@@H]2[C@@H](CCN2S(=O)(=O)c2ccc(F)cc2)[C@@H]1CO`: the concentration at half-maximal activity (AC50) is 15.8 µM.

In the case of `C[C@H](NC(=O)C[C@H]1CC[C@@H]2[C@@H](COc3ccc(NS(=O)(=O)c4ccc(Cl)cc4)cc3C(=O)N2C)O1)c1ccccc1`, the AC50 is 11.1 µM and 18.1 µM.

As for `CCN1CCCC1CNC(=O)C1CCN(Cc2cc3ccccc3n2Cc2cccc(C)c2)CC1` (stereo not drawn), the AC50 was 25.5 µM.

Regarding `CC(C)Cc1ccc(S(=O)(=O)N2CCC3(CC2)NCCN=C3NCc2ccc3c(c2)OCO3)cc1`, the AC50 was 5.76 µM.

Regarding `O=C(c1ccco1)N1CCC2(CC1)Nc1ccc(Cl)cc1-n1cccc12`, the AC50 is 32.1 µM.

Regarding `COc1ccc(CN2C[C@@H]3C[C@H](C(=O)Nc4ccccc4)[C@@H](C2)O3)cc1`, the AC50 was > 39 µM (inactive).

For the compound `O=S(=O)(c1cccs1)N1CCCCN2[C@H](CO)[C@H](c3ccc(/C=C/c4ccccc4)cc3)[C@@H]2C1`, the AC50 was 18.8 µM.

Take `COc1cc(Nc2nc(SCc3ccccc3F)nc3ccccc23)cc(OC)c1OC`: the AC50 is 20.6 µM.

Consider `COC[C@]12CCC[C@@H]1CN(S(=O)(=O)c1cccc(OC)c1)C2`, for which the AC50 was 36.2 µM.

Turning to `COc1cccc(-c2ccc(C3[C@@H]4CN(S(=O)(=O)Cc5ccccc5)C[C@H]3N4)cc2)c1` (stereo partly drawn), the AC50 was 12.3 µM and 15.7 µM.

In the case of `COc1cc(OC)cc(C(=O)Nc2ccc(-c3nc(-c4ccc(C)cc4C)co3)cc2)c1`, the AC50 was 29.7 µM.

For the compound `COc1ccccc1-c1noc(-c2nnn(Cc3nc(-c4ccccc4OC)oc3C)c2C)n1`, the AC50 was > 39 µM (inactive).

As to `COC1(C)CC2C(CC1OC(=O)c1cc([N+](=O)[O-])cc([N+](=O)[O-])c1)C2(C)C` (stereo not drawn), the AC50 was 12.4 µM.

For the compound `Cc1ccc(NC(=O)N2CCN(Cc3nc(-c4cccc(Cl)c4)oc3C)CC2)cc1Cl`, the AC50 was 15.7 µM.

On to `Cc1ccccc1Cn1c(CN2CCC(C(=O)N3CCCC3)CC2)cc2ccccc21`, for which the AC50 is > 39 µM (inactive).

`COCCN(CCOC)C(=O)c1cc2c(c3ccccc3n2CC2CC2)n1-c1ncccn1`: the AC50 is 28 µM.

As to `CCC(=O)N1CC[C@@H]2[C@H]1c1cc(-c3ccc(C#N)cc3)ccc1N(C)[C@H]2CO`, the AC50 is > 42 µM (inactive).
